Reference: Sander's compilation of Henry's law constants (doi:10.1136/oem.36.3.231)

Test: Henry solubility constant Hcp at 310 K (mol/(m3 Pa))
Settings: reference: Sato and Nakajima (1979a)

Row | Compound | Henry solubility constant Hcp at 310 K
1 | Cc1ccccc1C [1,2-dimethylbenzene] | 0.001
2 | Cc1cccc(C)c1 [1,3-dimethylbenzene] | 0.00064
3 | Cc1ccc(C)cc1 [1,4-dimethylbenzene] | 0.00061
4 | CCCCCC(C)=O [2-heptanone] | 0.037
5 | C=CCc1ccccc1 [2-propenylbenzene] | 0.0014
6 | CC(=O)CC(C)C [4-methyl-2-pentanone] | 0.031
7 | Cc1ccccc1 [methylbenzene] | 0.00086
8 | CC(C)=O [propanone] | 0.15

Next, values leading:

Row | Henry solubility constant Hcp at 310 K | Compound
9 | 0.043 | CCCCC(C)=O [2-hexanone]
10 | 0.064 | CCCC(C)=O [2-pentanone]
11 | 0.07 | CCC(=O)CC [3-pentanone]
12 | 0.00056 | CC(C)c1ccccc1 [(2-propyl)-benzene]
13 | 0.0011 | c1ccccc1 [benzene]
14 | 0.0018 | C=Cc1ccccc1 [ethenylbenzene]
15 | 0.00066 | CCc1ccccc1 [ethylbenzene]
16 | 0.0005 | CCCc1ccccc1 [propylbenzene]
